Measurements: US9957257B2, “Amide compounds as 5-HT4 receptor agonists” (SUVEN LIFE SCIENCES LIMITED, priority 2015, dated 2018)

How the values were obtained:
[1] = Rodent pharmacokinetic study; assay type: in vivo, Male wistar rats; details: male, Wistar, plasma, rat
Experimental: Male wistar rats (225±25 grams) were used as experimental animals. Three to five animals were housed in each cage. Two days prior to dosing day, male wistar rats (225-250 grams) were anesthetized with isoflurane for surgical placement of jugular vein catheter. Animals were fasted overnight before oral dosing (p.o) and food pellets were allowed 2 hours post dosing, whereas during intravenous dosing food and water were provided as ad libitum. Three rats were dosed with test compounds (3 mg/kg) orally and intravenously (1 mg/kg).
At each time point blood was collected through jugular vein and immediately replenish with an equivalent volume of normal saline from freely moving rats. Collected blood was transferred into a labeled eppendr off containing 10 μL of heparin as anticoagulant. Typically blood samples were collected as following time points: Pre dose, 0.08 (only i.v.), 0.25, 0.5, 1, 2, 4, 6, 8, and 24 hours post dose-(n=3). Blood was centrifuged at 4000 rpm for 10 minutes. Plasma was prepared and stored frozen at −20° C. until analysis. The concentrations of the test compounds were quantified in plasma by qualified LC-MS/MS method using suitable extraction technique. The test compounds were quantified in the calibration range around 2-2000 ng/mL in plasma. Study samples were analyzed using calibration samples in the batch and quality control samples spread across the batch.
Pharmacokinetic parameters Cmax, Tmax, AUCt, T1/2 and Bioavailability were calculated by non-compartmental model using standard non-compartmental model by using WinNonLin 5.0.1 or Phoenix WinNonlin 6.2 version Software package.

[2] = Rodent brain penetration study; assay type: in vivo, Male Wistar rats; details: male, Wistar, rat, 3 mg/kg, oral (gavage), read-out: Single dose Brain Penetration (Cb/Cp)
Experimental: Male Wistar rats (225±25 grams) were used as experimental animals. Three animals were housed in each cage. Animals were given water and food ad libitum throughout the experiment and maintained on a 12 hours light/dark cycle. Brain penetration was determined in discrete manner in rats. One day prior to dosing day, male wistar rats (225-250 grams) were acclimatized. After acclimatization the rats were grouped according to their weight. In each group, 3 animals were kept in individual cage and allowed free access to food and water. At each time point (0.50, 1 and 2 hours) n=3 animals were used. The test compounds were suitably preformulated and administered orally at (free base equivalent) 3 mg/kg. Blood samples were removed via, cardiac puncture by using isoflurane anesthesia. The animals were sacrificed to collect brain tissue. Plasma was separated and brain samples were homogenized and stored frozen at −20° C. until analysis. The concentrations of the test compounds in plasma and brain were determined using LC-MS/MS method. The test compounds were quantified in plasma and brain homogenate by qualified LC-MS/MS method using suitable extraction technique. The test compounds were quantified in the calibration range of 1-500 ng/mL in plasma and brain homogenate. Study samples were analyzed using calibration samples in the batch and quality control samples spread across the batch. Extent of brain-plasma ratio was calculated (Cb/Cp).

[3] = tested on: acetylcholine; experiment: Modulation of acetylcholine from the frontal cortex (microdialysis); assay type: in vivo, male Wistar rats; details: p.o.
From the text: Male Wistar rats (240-300 grams) were stereotaxically implanted with a microdialysis guide cannula in frontal cortex (AP: +3.2 mm, ML: −3.2 mm, DV: −1.5 mm). Co-ordinates were taken according to Paxinos and Watson (2004) with reference points taken from bregma and vertical from the skull. The rats were allowed to recover individually for four to five days in a round bottom Plexiglas bowl with free access to feed and water.
One day prior to the microdialysis experiment, rats were connected to a dual quartz lined two-channel liquid swivel (Instech, UK) on a counter balance lever arm, which allowed unrestricted movements of the animal. Sixteen hour before start of study, a pre-equilibrated microdialysis probe (3 mm dialysis membrane) was inserted into the frontal cortex through the guide cannula.
A stabilization period of 2 hours was maintained and five basal samples were collected at 20 minutes intervals. The test compound, Example 50 or vehicle was administered and dialysate samples were collected at 20 minutes interval for an additional period of 4 hours. Dialysates were stored below −70° C. until quantitation of acetylcholine.
Acetylcholine in dialysate was quantified in the calibration range of 0.103 nmol-103.491 nmol using LC-MS/MS method.
All microdialysis data were plotted as percent change from mean dialysate basal concentrations with 100% defined as the average of five pre-dose values. The AUC was calculated by trapezoidal rule using WinNonlin (5.0.1 version, Pharsight Corp. CA). The statistical significance between the mean AUC values of treatment groups with vehicle was calculated using one-way ANOVA followed by Dunnett's test. For each treatment group, the percent increase in acetylcholine levels was compared to the vehicle group using two-way analysis of variance (time and treatment), followed by Bonferroni's multiple comparison test. Statistical significance was considered at a p value less than 0.05.
In-correct probe placement was considered as criteria to reject the data from animal.

AUC(0-t) ([1]; 1 mg/kg, intravenous (bolus)): 182 ± 37 ng·h/mL
half-life ([1]; 1 mg/kg, intravenous (bolus)): 72 min
bioavailability ([1]; 3 mg/kg oral vs 1 mg/kg intravenous): 63 ± 13%
AUC(0-t) ([1]; 3 mg/kg, oral (gavage)): 346 ± 71 ng·h/mL
Cmax ([1]; 3 mg/kg, oral (gavage)): 230 ± 56 ng/mL
Tmax ([1]; 3 mg/kg, oral (gavage)): 15 min
half-life ([1]; 3 mg/kg, oral (gavage)): 90 min
Kp [2]: 1.48 ± 0.26
SMILES: CC(C)(O)CN1CCC(F)(CNC(=O)c2cc(Cl)c(N)c3ccoc23)CC1 [Example 50, 4-Amino-5-chloro-N-{[4-fluoro-1-(2-hydroxy-2-methylpropyl)-4-piperidinyl]methyl}benzofuran-7-carboxamide L(+)-tartarate]
Acetylcholine levels, frontal cortex, % of pre-dose levels ([3]; 10.0 mg/kg): 204%
Area under the curve (AUC), frontal cortex acetylcholine ([3]; 10.0 mg/kg): significant increase
acetylcholine levels of frontal cortex ([3]; across doses): dose-dependent increase
